Experimental data taken from US20210403485A1, “PYRAZOLOPYRIMIDINE DERIVATIVE AS SELECTIVE TRK INHIBITOR” (SHANDONG LUYE PHARMACEUTICAL CO., LTD., priority 2018, published 2021).

Assays:
Test in all cases: Kinase inhibitory activity (33P-ATP, filtration-binding method, Reaction Biology Corp.)
Format in all cases: biochemical
Ros1 = target: T1, Ros1 (Homo sapiens, UniProt P08922)
T1 construct: purchased Reaction Biology Corp
Method in brief: (§1)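 Radiometric kinase assay: enzyme-compound mixture preincubated 20 minutes at room temperature, then reaction started with ^33P-ATP and run 120 minutes at room temperature. Filtration-binding readout. Activity expressed relative to DMSO control; IC50 from fitted dose-response curves.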

TrkA = target: T2, TrkA (Homo sapiens, UniProt P04629)
T2 construct: purchased Reaction Biology Corp
T2 sequence (P04629 33-796): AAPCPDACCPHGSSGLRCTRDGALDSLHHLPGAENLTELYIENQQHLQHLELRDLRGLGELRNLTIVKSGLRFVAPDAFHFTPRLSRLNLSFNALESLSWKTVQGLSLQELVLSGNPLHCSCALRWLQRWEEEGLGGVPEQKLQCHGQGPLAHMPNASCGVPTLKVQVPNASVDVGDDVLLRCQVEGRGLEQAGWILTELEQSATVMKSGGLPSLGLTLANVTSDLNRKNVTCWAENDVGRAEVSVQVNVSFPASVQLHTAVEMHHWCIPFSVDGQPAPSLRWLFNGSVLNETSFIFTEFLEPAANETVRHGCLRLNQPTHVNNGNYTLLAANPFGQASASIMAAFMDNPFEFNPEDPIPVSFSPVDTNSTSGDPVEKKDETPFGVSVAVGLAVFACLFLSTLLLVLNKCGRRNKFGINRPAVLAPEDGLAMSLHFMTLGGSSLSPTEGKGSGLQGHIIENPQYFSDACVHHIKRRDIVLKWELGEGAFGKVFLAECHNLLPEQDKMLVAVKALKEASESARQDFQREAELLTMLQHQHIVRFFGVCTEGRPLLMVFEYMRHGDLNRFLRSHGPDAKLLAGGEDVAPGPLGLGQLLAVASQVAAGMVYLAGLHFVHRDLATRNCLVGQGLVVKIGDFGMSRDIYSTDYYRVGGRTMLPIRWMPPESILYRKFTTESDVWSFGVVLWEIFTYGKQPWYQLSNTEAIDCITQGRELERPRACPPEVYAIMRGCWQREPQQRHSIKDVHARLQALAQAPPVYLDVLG
Method in brief: as §1

TrkA-G595R = target: T3, TrkA-G595R (Homo sapiens, UniProt P04629, G595R)
T3 construct: purchased Reaction Biology Corp
T3 sequence (P04629 33-796 G595R): as the sequence (P04629 33-796) above, with G563R counted along it
Method in brief: as §1

TrkA-G667C = target: T4, TrkA-G667C (Homo sapiens, UniProt P04629, G667C)
T4 construct: purchased Reaction Biology Corp
T4 sequence (P04629 33-796 G667C): as the sequence (P04629 33-796) above, with G635C counted along it
Method in brief: as §1

TrkC = target: T5, TrkC (Homo sapiens, UniProt Q16288)
T5 construct: purchased Reaction Biology Corp
T5 sequence (Q16288 32-839): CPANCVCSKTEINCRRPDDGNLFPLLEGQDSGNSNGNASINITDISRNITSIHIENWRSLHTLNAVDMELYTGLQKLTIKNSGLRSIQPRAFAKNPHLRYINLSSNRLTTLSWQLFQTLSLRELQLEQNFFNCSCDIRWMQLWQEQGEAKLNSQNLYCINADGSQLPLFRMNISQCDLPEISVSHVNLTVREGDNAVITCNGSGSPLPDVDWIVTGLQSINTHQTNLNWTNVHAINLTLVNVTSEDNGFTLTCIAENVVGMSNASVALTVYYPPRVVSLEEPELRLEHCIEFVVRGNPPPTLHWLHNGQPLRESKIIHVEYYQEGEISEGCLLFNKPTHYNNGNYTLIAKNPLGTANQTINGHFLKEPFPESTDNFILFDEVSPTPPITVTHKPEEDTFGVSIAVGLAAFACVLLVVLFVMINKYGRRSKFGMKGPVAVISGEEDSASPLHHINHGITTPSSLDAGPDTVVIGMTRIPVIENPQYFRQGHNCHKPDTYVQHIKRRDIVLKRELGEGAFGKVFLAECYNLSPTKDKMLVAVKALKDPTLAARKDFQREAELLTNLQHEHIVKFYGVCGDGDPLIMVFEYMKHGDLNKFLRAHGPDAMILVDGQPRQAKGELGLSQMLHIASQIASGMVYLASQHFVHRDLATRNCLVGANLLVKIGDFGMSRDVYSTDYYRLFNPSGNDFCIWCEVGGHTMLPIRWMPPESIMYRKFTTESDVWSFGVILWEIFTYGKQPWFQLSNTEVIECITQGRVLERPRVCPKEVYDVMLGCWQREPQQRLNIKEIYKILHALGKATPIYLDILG
Method in brief: as §1

T1 sequence (P08922 28-2347): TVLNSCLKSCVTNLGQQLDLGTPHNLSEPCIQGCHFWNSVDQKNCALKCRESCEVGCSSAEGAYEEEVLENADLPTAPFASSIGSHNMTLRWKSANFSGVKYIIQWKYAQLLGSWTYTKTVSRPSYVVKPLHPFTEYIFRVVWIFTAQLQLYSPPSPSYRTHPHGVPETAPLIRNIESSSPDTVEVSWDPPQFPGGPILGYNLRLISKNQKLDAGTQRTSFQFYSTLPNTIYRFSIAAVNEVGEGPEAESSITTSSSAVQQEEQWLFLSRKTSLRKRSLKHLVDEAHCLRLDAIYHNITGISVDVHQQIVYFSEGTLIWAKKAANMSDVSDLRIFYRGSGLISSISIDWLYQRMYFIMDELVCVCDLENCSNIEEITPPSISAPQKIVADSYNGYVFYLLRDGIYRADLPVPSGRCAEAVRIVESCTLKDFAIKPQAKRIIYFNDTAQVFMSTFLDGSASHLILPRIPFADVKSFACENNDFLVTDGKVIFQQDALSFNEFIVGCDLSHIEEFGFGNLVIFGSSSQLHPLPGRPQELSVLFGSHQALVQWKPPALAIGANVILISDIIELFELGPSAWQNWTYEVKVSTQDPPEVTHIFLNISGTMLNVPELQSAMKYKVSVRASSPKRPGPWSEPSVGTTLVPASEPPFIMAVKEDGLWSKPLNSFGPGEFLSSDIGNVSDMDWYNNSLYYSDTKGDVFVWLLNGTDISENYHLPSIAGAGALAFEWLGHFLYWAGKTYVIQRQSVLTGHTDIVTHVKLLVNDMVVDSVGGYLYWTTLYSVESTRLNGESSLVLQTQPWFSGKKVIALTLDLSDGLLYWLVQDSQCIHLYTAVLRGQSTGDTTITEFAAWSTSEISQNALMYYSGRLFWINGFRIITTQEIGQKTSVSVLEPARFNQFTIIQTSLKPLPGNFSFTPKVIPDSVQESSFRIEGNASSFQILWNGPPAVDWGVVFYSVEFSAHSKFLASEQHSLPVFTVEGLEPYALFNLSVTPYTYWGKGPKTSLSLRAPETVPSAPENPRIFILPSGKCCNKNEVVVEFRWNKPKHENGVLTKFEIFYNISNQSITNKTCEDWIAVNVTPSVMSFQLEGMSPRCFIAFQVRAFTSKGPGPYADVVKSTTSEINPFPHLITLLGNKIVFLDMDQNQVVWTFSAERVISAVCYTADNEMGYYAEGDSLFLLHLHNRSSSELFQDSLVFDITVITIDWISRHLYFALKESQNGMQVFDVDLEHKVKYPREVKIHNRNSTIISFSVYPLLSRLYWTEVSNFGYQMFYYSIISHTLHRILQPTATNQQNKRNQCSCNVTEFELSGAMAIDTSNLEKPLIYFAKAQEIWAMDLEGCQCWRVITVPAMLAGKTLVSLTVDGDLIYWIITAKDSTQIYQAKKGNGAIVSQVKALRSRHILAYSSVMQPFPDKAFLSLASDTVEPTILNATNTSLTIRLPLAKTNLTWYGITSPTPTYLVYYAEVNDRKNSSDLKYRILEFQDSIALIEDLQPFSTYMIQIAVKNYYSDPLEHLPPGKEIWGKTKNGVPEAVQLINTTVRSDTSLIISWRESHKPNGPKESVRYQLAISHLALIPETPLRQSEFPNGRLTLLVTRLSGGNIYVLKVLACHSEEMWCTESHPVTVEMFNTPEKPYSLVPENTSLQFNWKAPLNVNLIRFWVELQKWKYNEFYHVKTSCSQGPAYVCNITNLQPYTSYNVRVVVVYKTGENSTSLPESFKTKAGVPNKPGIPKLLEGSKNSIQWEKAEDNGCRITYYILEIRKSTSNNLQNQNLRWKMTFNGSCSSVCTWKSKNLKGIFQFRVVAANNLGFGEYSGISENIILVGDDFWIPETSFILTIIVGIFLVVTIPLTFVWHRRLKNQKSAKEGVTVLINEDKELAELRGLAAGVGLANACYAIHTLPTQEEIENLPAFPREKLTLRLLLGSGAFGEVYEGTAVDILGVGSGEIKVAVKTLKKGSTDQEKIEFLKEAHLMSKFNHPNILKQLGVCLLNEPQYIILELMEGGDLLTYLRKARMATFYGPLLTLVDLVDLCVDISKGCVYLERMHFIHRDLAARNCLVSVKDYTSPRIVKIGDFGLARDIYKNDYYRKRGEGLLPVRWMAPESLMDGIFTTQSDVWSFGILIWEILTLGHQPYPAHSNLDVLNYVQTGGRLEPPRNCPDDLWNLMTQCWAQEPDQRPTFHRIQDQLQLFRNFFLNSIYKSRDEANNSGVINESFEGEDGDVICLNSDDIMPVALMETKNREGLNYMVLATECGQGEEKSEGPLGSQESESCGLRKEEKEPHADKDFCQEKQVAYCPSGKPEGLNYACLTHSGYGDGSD

With `O=C1NC2(CC2)COc2ncc(F)cc2C2COCCN2c2ccn3ncc1c3n2` (single isomer, unassigned) [WX001B] the IC50 (Ros1) was 1 nM, the IC50 (TrkA) was 2.4 nM and the IC50 (TrkA-G595R) was 3.5 nM. The IC50 (TrkA-G667C) was 2.3 nM and the IC50 (TrkC) was 0.2 nM.
